Test results: patent publication US10233186B2, “Inhibitors of activin receptor-like kinase” (BLUEPRINT MEDICINES CORPORATION, priority 2016, dated 2019)

Tests used:
[1] = target: T1, ALK2 R206H (GST-tagged mutant ALK2) (Homo sapiens, UniProt Q04771, R206H); experiment: ALK binding assay (LANTHASCREEN TR-FRET competitive binding, displacement of Kinase Tracer 178); conditions: ALK2 R206H, LANTHASCREEN TR-FRET competitive binding; read-out: Binding Assay (IC50)
T1 construct: purchased Carna Bioscience or ThermoFisher 09-148 or PV6232
T1 sequence (Q04771 21-509 R206H): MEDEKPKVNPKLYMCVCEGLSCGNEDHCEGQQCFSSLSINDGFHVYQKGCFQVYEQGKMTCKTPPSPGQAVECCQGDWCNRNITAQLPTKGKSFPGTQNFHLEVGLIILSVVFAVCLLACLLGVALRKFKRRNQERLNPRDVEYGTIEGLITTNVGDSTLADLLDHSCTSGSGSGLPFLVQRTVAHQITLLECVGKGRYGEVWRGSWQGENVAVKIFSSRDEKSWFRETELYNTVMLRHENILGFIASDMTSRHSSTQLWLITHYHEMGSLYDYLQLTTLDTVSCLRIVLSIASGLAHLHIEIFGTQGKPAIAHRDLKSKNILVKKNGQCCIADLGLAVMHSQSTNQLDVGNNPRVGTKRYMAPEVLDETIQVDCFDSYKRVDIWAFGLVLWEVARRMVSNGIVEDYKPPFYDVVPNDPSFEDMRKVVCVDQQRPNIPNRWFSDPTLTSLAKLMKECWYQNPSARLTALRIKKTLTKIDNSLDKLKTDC

human ALK2 R206H = target: T2, human ALK2 R206H (Homo sapiens, UniProt Q04771, R206H); experiment: Cell-based ALK2-R206H cell activity assay (Smad1-Ser463/Ser465 phosphorylation by AlphaLISA in HEK293-ALK2-R206H cells); conditions: read-out: Cell Line (Cell Assay IC50)
T2 construct: expressed in transfected cells; host or cells: HEK293 (ATCC CRL1573), lentivirus transduction, blasticidin selection
T2 sequence (Q04771 21-509 R206H): T1 sequence (Q04771 21-509 R206H)
Method in brief: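 Stable HEK293 cells expressing C-terminally FLAG-tagged human ALK2 R206H (lentiviral, blasticidin-selected) were treated with compounds in 10-point, 3-fold dilutions from 10 μM or 1 μM top, in duplicate. Smad1 Ser463/Ser465 phosphorylation was read by AlphaLISA.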

SMILES	IC50 [1]	IC50 (human ALK2 R206H)
CO[C@@]1(c2ccc(-c3cc4c(N5CCN(C(=O)NC(C)C)CC5)ccnn4c3)cc2F)CCCN(C(C)C)C1 [Compound 724]	< 10 nM	< 100 nM
COC1(c2cnc(-c3cc4c(N5CCN(C(=O)NC(C)C)CC5)ccnn4c3)c(F)c2)CCN(C(C)C)CC1 [Compound 725]	< 10 nM	< 100 nM
CC(C)N1CCC(c2ccc(-c3cc4c(N5CCN(C(=O)OC6COC6)CC5)ccnn4c3)c(Cl)c2)CC1 [Compound 726]	< 10 nM	100 to 500 nM
CC(C)N1CCC(c2ccc(-c3cc4c(N5CCN(C(=O)C6CC6)CC5)ccnn4c3)cc2)(C(F)(F)F)CC1 [Compound 727]	< 10 nM	< 100 nM
COC1(c2ccc(-c3cc4c(N5CCN(C(=O)[C@H]6C[C@H](C#N)C6)CC5)ccnn4c3)cc2)CCN(C(C)C)CC1 [Compound 728]	< 10 nM	< 100 nM
COC1(c2ccc(-c3cc4c(N5CCN(C(=O)C6CCC(C#N)CC6)CC5)ccnn4c3)cc2)CN(C(C)C)C1 (centres unmarked) [Compound 729]	< 10 nM	< 100 nM
COC1(c2ccc(-c3cc4c(N5CCN(C(=O)[C@H]6C[C@H](C#N)C6)CC5)ccnn4c3)nc2)CCN(C(C)C)CC1 [Compound 731]	< 10 nM	< 100 nM
CC(C)(C)OC(=O)N1CCC(N)(c2ccc(-c3cc4c(N5CCN(C(=O)C6CC6)CC5)ccnn4c3)cc2)CC1 [Compound 732]	< 10 nM	100 to 500 nM
COC1(c2ccc(-c3cc4c(N5CCN(C(=O)OC6COC6)CC5)ccnn4c3)nc2)CCN(C2COC2)CC1 [Compound 733]	< 10 nM	< 100 nM
CCOC1(c2ccc(-c3cc4c(N5CCN(C(=O)OC6COC6)CC5)ccnn4c3)nc2)CCN(C(C)C)CC1 [Compound 734]	< 10 nM	< 100 nM
COC[C@@H](C)N1CCC(OC)(c2ccc(-c3cc4c(N5CCN(C(=O)NC(C)C)CC5)ccnn4c3)nc2)CC1 [Compound 735]	< 10 nM	< 100 nM
COC[C@H](C)N1CCC(OC)(c2ccc(-c3cc4c(N5CCN(C(=O)NC(C)C)CC5)ccnn4c3)nc2)CC1 [Compound 736]	< 10 nM	< 100 nM
COC1(c2ccc(-c3cc4c(N5CCN(C(=O)OC6COC6)CC5)ccnn4c3)c(F)c2)CCN(C(C)C)CC1 [Compound 737]	< 10 nM	< 100 nM
CC(C)NC(=O)N1CCN(c2ccnn3cc(-c4ccc(C5(C(F)(F)F)CCN(C(C)C)CC5)cc4)cc23)CC1 [Compound 738]	< 10 nM	< 100 nM
COC1(c2ccc(-c3cc4c(N5CCN(C(=O)[C@H]6C[C@H](C#N)C6)CC5)ccnn4c3)cc2)CCN([C@H](C)CO)CC1 [Compound 739]	< 10 nM	< 100 nM
COC1(c2ccc(-c3cc4c(N5CCN(C(=O)[C@H]6C[C@H](C#N)C6)CC5)ccnn4c3)cc2)CCN([C@@H](C)CO)CC1 [Compound 740]	< 10 nM	< 100 nM
COC1(c2ccc(-c3cc4c(N5CCN(C(=O)[C@H]6C[C@H](C#N)C6)CC5)ccnn4c3)nc2)CCN([C@@H](C)CO)CC1 [Compound 741]	< 10 nM	< 100 nM
COC[C@H](C)N1CCC(OC)(c2ccc(-c3cc4c(N5CCN(C(=O)OC6COC6)CC5)ccnn4c3)nc2)CC1 [Compound 743]	< 10 nM	< 100 nM
COC[C@@H](C)N1CCC(OC)(c2ccc(-c3cc4c(N5CCN(C(=O)OC6COC6)CC5)ccnn4c3)nc2)CC1 [Compound 744]	< 10 nM	< 100 nM
COC[C@H](C)N1CCC(OC)(c2ccc(-c3cc4c(N5CCN(C(=O)[C@H]6C[C@H](C#N)C6)CC5)ccnn4c3)cc2)CC1 [Compound 745]	< 10 nM	< 100 nM
COC[C@@H](C)N1CCC(OC)(c2ccc(-c3cc4c(N5CCN(C(=O)[C@H]6C[C@H](C#N)C6)CC5)ccnn4c3)cc2)CC1 [Compound 746]	< 10 nM	< 100 nM
CC(C)N1CCC(c2ccc(-c3cc4c(N5CCN(C(=O)OC6COC6)CC5)ccnn4c3)cc2)(C(F)(F)F)CC1 [Compound 747]	< 10 nM	< 100 nM
COC[C@H](C)N1CCC(OC)(c2ccc(-c3cc4c(N5CCN(C(=O)[C@H]6C[C@H](C#N)C6)CC5)ccnn4c3)nc2)CC1 [Compound 748]	< 10 nM	< 100 nM
COC[C@@H](C)N1CCC(OC)(c2ccc(-c3cc4c(N5CCN(C(=O)[C@H]6C[C@H](C#N)C6)CC5)ccnn4c3)nc2)CC1 [Compound 749]	< 10 nM	< 100 nM
COC1(c2ccc(-c3cc4c(N5CCN(C(=O)NC(C)C)CC5)ccnn4c3)nc2)CCN([C@H](C)COC(F)F)CC1 [Compound 750]	< 10 nM	< 100 nM
N[C@H](CO)c1ccc(-c2cc3c(N4CCN(C(=O)C5CC5)CC4)ccnn3c2)cc1 [Compound 752]	< 10 nM	100 to 500 nM

SMILES	IC50 [1]	IC50 (human ALK2 R206H)
N[C@@H](CO)c1ccc(-c2cc3c(N4CCN(C(=O)C5CC5)CC4)ccnn3c2)cc1 [Compound 753]	< 10 nM	< 100 nM
CCOC(=O)N1CCN(c2ccnn3cc(-c4ccc([C@@H](N)CO)cc4)cc23)CC1 [Compound 754]	< 10 nM	< 100 nM
NC1(c2ccc(-c3cc4c(N5CCN(C(=O)C6CC6)CC5)ccnn4c3)cc2)COC1 [Compound 755]	< 10 nM	100 to 500 nM
O=C(C1CC1)N1CCN(c2ccnn3cc(-c4ccc(CNC5COC5)cc4)cc23)CC1 [Compound 760]	< 10 nM	100 to 500 nM
CC(C)(O)C(N)c1ccc(-c2cc3c(N4CCN(C(=O)C5CC5)CC4)ccnn3c2)cc1 (centres unmarked) [Compound 761]	< 10 nM	< 100 nM
N[C@H](CO)c1ccc(-c2cc3c(N4CCN(C(=O)OC5COC5)CC4)ccnn3c2)cc1 [Compound 762]	< 10 nM	100 to 500 nM
N[C@@H](CO)c1ccc(-c2cc3c(N4CCN(C(=O)OC5COC5)CC4)ccnn3c2)cc1 [Compound 763]	< 10 nM	< 100 nM
CCOC(=O)N1CCN(c2ccnn3cc(-c4ccc(C(N)C(C)(C)O)cc4)cc23)CC1 (centres unmarked) [Compound 764]	< 10 nM	< 100 nM
NC1(c2ccc(-c3cc4c(N5CCN(C(=O)C6CC6)CC5)ccnn4c3)cc2)CCOCC1 [Compound 768]	< 10 nM	< 100 nM
CC(C)N[C@@H](CO)c1ccc(-c2cc3c(N4CCN(C(=O)C5CC5)CC4)ccnn3c2)cc1 [Compound 770]	< 10 nM	< 100 nM
CC(N)(CO)c1ccc(-c2cc3c(N4CCN(C(=O)OC5COC5)CC4)ccnn3c2)cc1 (centres unmarked) [Compound 771]	< 10 nM	< 100 nM
O=C(OC1COC1)N1CCN(c2ccnn3cc(-c4ccc(C5CCNCC5)cc4)cc23)CC1 [Compound 773]	< 10 nM	100 to 500 nM
O=C(OC1COC1)N1CCN(c2ccnn3cc(-c4ccc([C@@H]5CCCNC5)cc4)cc23)CC1 [Compound 774]	< 10 nM	< 100 nM
O=C(OC1COC1)N1CCN(c2ccnn3cc(-c4ccc(N5CCNCC5)cc4)cc23)CC1 [Compound 775]	< 10 nM	< 100 nM
O=C(OC1COC1)N1CCN(c2ccnn3cc(-c4ccc(N5CCNCC5)cn4)cc23)CC1 [Compound 776]	< 10 nM	< 100 nM
CCOC(=O)N1CCN(c2ccnn3cc(-c4ccc([C@]5(OC)CCCNC5)cc4)cc23)CC1 [Compound 777]	< 10 nM	< 100 nM
CCOC(=O)N1CCN(c2ccnn3cc(-c4ccc([C@@]5(OC)CCCNC5)cn4)cc23)CC1 [Compound 778]	< 10 nM	< 100 nM
CC(C)(O)C(N)c1ccc(-c2cc3c(N4CCN(C(=O)OC5COC5)CC4)ccnn3c2)cc1 (centres unmarked) [Compound 779]	< 10 nM	< 100 nM
CCN[C@@H](CO)c1ccc(-c2cc3c(N4CCN(C(=O)OC5COC5)CC4)ccnn3c2)cc1 [Compound 780]	< 10 nM	< 100 nM
CCOC(=O)N1CCN(c2ccnn3cc(-c4ccc([C@@]5(OCC)CCCNC5)cc4)cc23)CC1 [Compound 782]	< 10 nM	< 100 nM
CCOC(=O)N1CCN(c2ccnn3cc(-c4ccc([C@]5(OCC)CCCNC5)cc4)cc23)CC1 [Compound 783]	< 10 nM	< 100 nM
CO[C@]1(c2ccc(-c3cc4c(N5CCN(C(=O)NC(C)C)CC5)ccnn4c3)nc2)CCCNC1 [Compound 784]	< 10 nM	< 100 nM
COC1(c2ccc(-c3cc4c(N5CCN(C(=O)NC(C)C)CC5)ccnn4c3)nc2)CCNCC1 [Compound 785]	< 10 nM	100 to 500 nM
CO[C@@]1(c2ccc(-c3cc4c(N5CCN(C(=O)NC(C)C)CC5)ccnn4c3)nc2)CCCNC1 [Compound 786]	< 10 nM	< 100 nM
CCOC(=O)N1CCN(c2ccnn3cc(-c4ccc([C@]5(OCC)CCCNC5)cn4)cc23)CC1 [Compound 787]	< 10 nM	< 100 nM
CCOC(=O)N1CCN(c2ccnn3cc(-c4ccc([C@@]5(OCC)CCCNC5)cn4)cc23)CC1 [Compound 788]	< 10 nM	< 100 nM
